Results from the supplement of paper PMC10627819.

What was measured:
[1] = test system: S. aureus DSM 20231; assay: Bliss interaction score (quartile over a dose matrix) (fitness difference); higher = more antagonism (negative = synergy)
Outline: (§1)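 The Bliss score is observed minus expected fitness under the product model, reported as quartiles over technical, biological and donor/recipient replicates. Fitness is the OD595 at entry into stationary phase divided by the plate's robust no-drug mean and capped at 1. Single-drug fitness was inferred from combination data.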

[2] = test system: S. pneumoniae D39V; assay: as above
Outline: as §1

[3] = test system: S. aureus Newman; assay: as above
Outline: as §1

[4] = test system: B. subtilis 168; assay: as above
Outline: as §1

[5] = test system: S. pneumoniae D39V; assay: fitness (endpoint OD595 vs no drug) (fraction); higher = more growth
Outline: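 Bacterial growth was followed in 384-well plates seeded at OD595 0.01, with 30 µl per well, or 55 µl for S. pneumoniae, in TSB, LB Lennox or CY at 37 °C. OD595 was read every 30 min for 14 h, and each reading had the first reading subtracted as background. Fitness is the background-corrected optical density at entry into stationary phase divided by the robust mean of the no-drug control wells. This ratio is capped at 1.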
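Throughout, for Bliss interaction score (quartile over a dose matrix): first quartile when negative (synergy) and third quartile when positive (antagonism).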

CC[C@H]1OC(=O)[C@H](C)[C@@H](O[C@H]2C[C@@](C)(OC)[C@@H](O)[C@H](C)O2)[C@H](C)[C@@H](O[C@@H]2O[C@H](C)C[C@H](N(C)C)[C@H]2O)[C@](C)(OC)C[C@@H](C)C(=O)[C@H](C)[C@@H](O)[C@]1(C)O [Clarithromycin] + Cc1cc(NS(=O)(=O)c2ccc(N)cc2)no1 [Sulfamethoxazol]
Conditions | Bliss interaction score
[1] | 0.0612
[2] | 0.0413
[3] | -0.0372
[4] | 0.0784

fitness, [5], one replicate
Conditions | first compound 0.007812 µg/mL | first compound 0.01562 µg/mL | first compound 0.03125 µg/mL | first compound 0.0625 µg/mL | first compound 0.125 µg/mL | first compound 0.25 µg/mL
partner 1 µg/mL | 0.925 | 0.809 | 0.67 | 0.699 | 0.466 | 0.168
partner 2 µg/mL | 0.917 | 0.825 | 0.665 | 0.813 | 0.664 | 0.315
partner 4 µg/mL | 0.899 | 0.805 | 0.661 | 0.613 | 0.465 | 0.17

fitness, [5]
Conditions | first compound 0.07 µg/mL | first compound 0.14 µg/mL | first compound 0.28 µg/mL
partner 1 µg/mL | 0.119 | 0.0685 | 0.0468
partner 2 µg/mL | 0.11 | 0.0677 | 0.0381
partner 4 µg/mL | 0.1 | 0.0655 | 0.0459

O=C1CN(/N=C/c2ccc([N+](=O)[O-])o2)C(=O)N1 [Nitrofurantoin] + CN1C2=CC=CC=C2N=C3C1=CC=CC3=O [Pyocyanin]
Conditions | Bliss interaction score
[1] | -0.0533
[2] | -0.199
[3] | -0.0575
[4] | 0.0805

fitness, [5]
Conditions | partner 0.325 µg/mL | partner 0.65 µg/mL | partner 1.3 µg/mL
first compound 1.285 µg/mL | 0.979 | 0.919 | 0.634
first compound 2.57 µg/mL | 0.94 | 0.796 | 0.444

fitness, [5], one replicate
Conditions | first compound 2 µg/mL | first compound 4 µg/mL | first compound 5.14 µg/mL | first compound 8 µg/mL
partner 0.325 µg/mL | ≥ 1 | ≥ 1 | 0.798 | 0.738
partner 0.65 µg/mL | ≥ 1 | 0.982 | 0.637 | 0.814
partner 1.3 µg/mL | – | – | 0.332 | –

O=C1CN(/N=C/c2ccc([N+](=O)[O-])o2)C(=O)N1 [Nitrofurantoin] + Cn1nnc(-c2ccc(-c3ccc(N4C[C@H](CO)OC4=O)cc3F)cn2)n1 [Tedizolid]
Conditions | Bliss interaction score
[1] | -0.0543
[2] | -0.141
[3] | -0.0562
[4] | -0.0546

fitness, [5]
Conditions | first compound 1.285 µg/mL | first compound 2 µg/mL | first compound 2.57 µg/mL | first compound 4 µg/mL | first compound 8 µg/mL
partner 0.03125 µg/mL | – | 0.948 | – | 0.957 | 0.951
partner 0.0625 µg/mL | – | 0.893 | – | 0.915 | 0.859
partner 0.125 µg/mL | 0.805 | 0.767 | 0.812 | 0.775 | 0.771
partner 0.25 µg/mL | 0.724 | – | 0.676 | – | –
partner 0.5 µg/mL | 0.258 | – | 0.217 | – | –

[5], first compound 5.14 µg/mL, one replicate
Conditions | fitness
partner 0.125 µg/mL | 0.791
partner 0.25 µg/mL | 0.589
partner 0.5 µg/mL | 0.18
